Laboratory results taken from US20230312723A1, “METHODS AND COMPOSITIONS FOR NON-SMALL CELL LUNG CANCER IMMUNOTHERAPY” (Genentech, Inc., priority 2020, published 2023).

Tested on: Stage IV non-squamous or squamous NSCLC
Experiment: Phase III randomized open-label study of atezolizumab vs platinum-based chemotherapy: efficacy (OS, PFS, ORR, DOR per RECIST v1.1), incl. PD-L1 and bTMB subgroups
Type: in vivo, human
Protocol: As described below, the primary endpoint of this study was improvement in overall survival (OS). Secondary endpoints included progression-free survival (PFS), overall response rate (ORR), and duration of response (DOR), among others.
FIG. 1 illustrates the study design.
At screening, tumor specimens from each potentially eligible patient were tested for PD-L1 expression by a central laboratory using an IHC assay. Only patients who are PD-L1 selected (TC1/2/3 or 101/2/3; corresponding to 1% PD-L1 expressing TCs and 1% of tumor area occupied by PD-L1 expressing ICs) were enrolled. […] Randomization was stratified by sex (male vs. female), ECOG Performance Status (0 vs. 1), histology (non-squamous vs. squamous), and PD-L1 tumor expression by IHC (TC1/2/3 and any IC vs. TC0 and 101/2/3).
Patients randomized to receive pemetrexed in combination with either cisplatin or carboplatin (non-squamous disease) received chemotherapy intravenously on Day 1 of each 21-day cycle for four or six cycles, followed by maintenance therapy with pemetrexed. Patients randomized to receive gemcitabine in combination with either cisplatin or carboplatin (squamous disease) received cisplatin or carboplatin intravenously on Day 1 and gemcitabine intravenously on Days 1 and 8 of each 21-day cycle for four or six cycles, followed by best supportive care. The intended number of cycles planned for the platinum-based induction chemotherapy (i.e., four or six cycles) was specified by the investigator prior to study randomization. Treatment will continue until disease progression, unacceptable toxicity, or death.
All patients underwent tumor assessment at baseline and every 6 weeks (±7 days) for 48 weeks following Cycle 1, Day 1 regardless of treatment delays. […] In the absence of radiographic disease progression per RECIST v1.1, tumor assessments continued regardless of whether patients start a new anti-cancer therapy.
The primary efficacy outcome measure for this study is OS, defined as the time from randomization to death from any cause.
The secondary efficacy outcome measures for this study are as follows: • PFS, defined as the time from randomization to the first occurrence of disease progression, as determined by the investigator with use of RECIST v1.1, or death from any cause, whichever occurs first • Objective response (PR plus CR) as determined by the investigator according to RECIST v1.1 • DOR, defined as the time from the first occurrence of a documented objective response to the time of disease progression, as determined by the investigator with use of RECIST v1.1, or death from any cause, whichever occurs first • OS at 1- and 2-year landmark timepoints • TTD and change from baseline (i.e., improvement or deterioration based on presenting symptomatology) in each of the patient-reported lung cancer symptoms (cough, dyspnea, or chest pain) with use of the SILO scale • TTD in patient-reported lung cancer symptoms, defined as time from randomization to deterioration (10-point change) in any of the following symptom subscales (cough, dyspnea [multi-item scale], and chest pain), whichever occurs first, as measured by the EORTC QLQ-LC13 • OS and investigator-assessed PFS according to RECIST v1.1 in the PD-L1 (defined with SP263 IHC assay) and bTMB subpopulations. The bTMB assay (Foundation Medicine, Cambridge, MA) identifies single nucleotide variants at ≥0.5% across 394 genes and estimates tumor fraction by maximum somatic allele frequency, filters out germline events and counts non-driver somatic mutations to generate a bTMB score. The bTMB score cutoffs evaluated were 0, 6 and […] of 16 (16 mutations/1.1 Mb) equates to approximately 14.5 mutations/Mb.

[1] = TC1/2/3 or IC1/2/3-WT population
[2] = bTMB 6 cutoff, bTMB BEP-WT population

For atezolizumab, the “OS vs chemotherapy (in words)” value (PD-L1-positive BEP subgroups) was “OS improvement favoring atezolizumab vs chemotherapy”, the “Median OS” value [1] was 17.5 months and the “OS HR, stratified (atezo vs chemo)” value [1] was 0.832. For the same substance, the “Median OS” value (TC2/3 or IC2/3-WT population) was 18.2 months, the “OS HR, stratified (atezo vs chemo)” value (TC2/3 or IC2/3-WT population) was 0.717 and the “Confirmed ORR” value (TC3 or IC3-WT population) was 38.3% (29.08,. The “Overall Survival, Median” value (TC3 or IC3-WT population) was 20.2 months, the “Overall Survival, Stratified HR (atezo vs chemo)” value (TC3 or IC3-WT population) was 0.595 and the “Overall Survival, improvement of median vs chemo” value (TC3 or IC3-WT population) was 7.1 months. For the same substance, the “Progression-Free Survival, Median” value (TC3 or IC3-WT population) was 8.1 months, the “Progression-Free Survival, Stratified HR (atezo vs chemo)” value (TC3 or IC3-WT population) was 0.630 and the “Progression-Free Survival, improvement of median vs chemo” value (TC3 or IC3-WT population) was 3.1 months. For the same substance, the “PFS vs chemotherapy (in words)” value (across PD-L1 BEP subgroups) was “PFS improvement with atezolizumab was observed”, the “OS unstratified HR (atezolizumab vs chemotherapy)” value [2] was 0.75 and the “PFS HR (atezolizumab vs chemotherapy)” value [2] was 0.55.
